Assay results reported in ChEMBL document CHEMBL1201862, “PubChem BioAssay data set” (2004).
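Each compound was tested at five concentrations against cells in 96-well plates for 48 hours. GI50: concentration for 50% inhibition of growth.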 Active and inactive are the calls of the source. No stated cut-off is given here; in the data, active = GI50 up to about 1.1 µM and inactive = higher.

Tests used:
Experiment in all cases: inhibition of tumour cell growth, NCI panel, 48 h
[1] = tested on: KM12
[2] = tested on: RPMI-8226
[3] = tested on: Malme-3M
[4] = tested on: CCRF-CEM
[5] = tested on: TK-10
[6] = tested on: HCC 2998
[7] = tested on: M19-MEL
[8] = tested on: RXF 393
[9] = tested on: HT-29
[10] = tested on: UO-31
[11] = tested on: K562
[12] = tested on: COLO 205
[13] = tested on: SK-MEL-2
[14] = tested on: OVCAR-5
[15] = tested on: SK-OV-3
[16] = tested on: OVCAR-8
[17] = tested on: NCI-H23
[18] = tested on: DLD-1
[19] = tested on: NCI-H522
[20] = tested on: SK-MEL-5
[21] = tested on: SR
[22] = tested on: HL-60
[23] = tested on: SW-620
[24] = tested on: UACC-257
[25] = tested on: U-251
[26] = tested on: 786-0
[27] = tested on: SNB-19
[28] = tested on: ACHN
[29] = tested on: HOP-62
[30] = tested on: HCT-15
[31] = tested on: HOP-92
[32] = tested on: SNB-75
[33] = tested on: M14
[34] = tested on: SF-295
[35] = tested on: EKVX
[36] = tested on: SK-MEL-28
[37] = tested on: LXFL 529
[38] = tested on: IGROV-1
[39] = tested on: KM-20L2
[40] = tested on: SN12C
[41] = tested on: A549
[42] = tested on: DMS-114
[43] = tested on: HCT-116
[44] = tested on: UACC-62
[45] = tested on: MOLT-4
[46] = tested on: CAKI-1
[47] = tested on: OVCAR-3
[48] = tested on: SF-268
[49] = tested on: HOP-18
[50] = tested on: LOX IMVI
[51] = tested on: NCI-H460
[52] = tested on: OVCAR-4
[53] = tested on: SF-539
[54] = tested on: SNB-78
[55] = tested on: XF498
[56] = tested on: NCI-H226
[57] = tested on: A498

Compound: O=c1[nH]cc(COCC(F)(F)C(F)(F)C(F)(F)C(F)F)c(=O)[nH]1
- GI50 [1]: > 100 µM (inactive)
- GI50 [2]: > 100 µM (inactive)
- GI50 [3]: > 100 µM (inactive)
- GI50 [4]: > 100 µM (inactive)
- GI50 [5]: > 100 µM (inactive)
- GI50 [6]: > 100 µM (inactive)
- GI50 [7]: > 100 µM (inactive)
- GI50 [8]: > 100 µM (inactive)
- GI50 [9]: > 100 µM (inactive)
- GI50 [10]: > 100 µM (inactive)
- GI50 [11]: > 100 µM (inactive)
- GI50 [12]: > 100 µM (inactive)
- GI50 [13]: > 100 µM (inactive)
- GI50 [14]: > 100 µM (inactive)
- GI50 [15]: > 100 µM (inactive)
- GI50 [16]: > 100 µM (inactive)
- GI50 [17]: > 100 µM (inactive)
- GI50 [18]: > 100 µM (inactive)
- GI50 [19]: > 100 µM (inactive)
- GI50 [20]: > 100 µM (inactive)
- GI50 [21]: > 100 µM (inactive)
- GI50 [22]: > 100 µM (inactive)
- GI50 [23]: > 100 µM (inactive)
- GI50 [24]: > 100 µM (inactive)
- GI50 [25]: > 100 µM (inactive)
- GI50 [26]: > 100 µM (inactive)
- GI50 [27]: > 100 µM (inactive)
- GI50 [28]: > 100 µM (inactive)
- GI50 [29]: > 100 µM (inactive)
- GI50 [30]: > 100 µM
- GI50 [31]: > 100 µM (inactive)
- GI50 [32]: > 100 µM (inactive)
- GI50 [33]: > 100 µM (inactive)
- GI50 [34]: > 100 µM (inactive)
- GI50 [35]: > 100 µM (inactive)
- GI50 [36]: > 100 µM (inactive)
- GI50 [37]: > 100 µM (inactive)
- GI50 [38]: > 100 µM (inactive)
- GI50 [39]: > 100 µM (inactive)
- GI50 [40]: > 100 µM (inactive)
- GI50 [41]: > 100 µM (inactive)
- GI50 [42]: > 100 µM (inactive)
- GI50 [43]: > 100 µM (inactive)
- GI50 [44]: > 100 µM (inactive)
- GI50 [45]: > 100 µM (inactive)
- GI50 [46]: > 100 µM (inactive)
- GI50 [47]: > 100 µM (inactive)
- GI50 [48]: > 100 µM (inactive)
- GI50 [49]: > 100 µM (inactive)
- GI50 [50]: > 100 µM (inactive)

Compound: Cc1ccc([N+](=O)[O-])cc1NC(=O)C(=O)Cc1cc(=O)oc2cc(O)ccc12
- GI50 [1]: > 100 µM (inactive)
- GI50 [2]: 32.1 µM (inactive)
- GI50 [51]: 83.9 µM (inactive)
- GI50 [3]: > 100 µM (inactive)
- GI50 [4]: 39.1 µM (inactive)
- GI50 [5]: > 100 µM (inactive)
- GI50 [6]: > 100 µM (inactive)
- GI50 [7]: > 100 µM (inactive)
- GI50 [8]: 28.1 µM (inactive)
- GI50 [9]: > 100 µM (inactive)
- GI50 [10]: > 100 µM (inactive)
- GI50 [11]: 46.3 µM (inactive)
- GI50 [12]: 42.8 µM (inactive)
- GI50 [13]: > 100 µM (inactive)
- GI50 [14]: > 100 µM (inactive)
- GI50 [15]: > 100 µM (inactive)
- GI50 [16]: > 100 µM (inactive)
- GI50 [52]: > 100 µM (inactive)
- GI50 [17]: > 100 µM (inactive)
- GI50 [18]: > 100 µM (inactive)
- GI50 [19]: > 100 µM (inactive)
- GI50 [20]: > 100 µM (inactive)
- GI50 [21]: 32.4 µM (inactive)
- GI50 [22]: > 100 µM (inactive)
- GI50 [24]: > 100 µM (inactive)
- GI50 [25]: > 100 µM (inactive)
- GI50 [53]: > 100 µM (inactive)
- GI50 [26]: > 100 µM (inactive)
- GI50 [27]: > 100 µM (inactive)
- GI50 [54]: > 100 µM (inactive)
- GI50 [28]: > 100 µM (inactive)
- GI50 [29]: > 100 µM (inactive)
- GI50 [30]: > 100 µM
- GI50 [31]: > 100 µM (inactive)
- GI50 [32]: > 100 µM (inactive)
- GI50 [55]: > 100 µM (inactive)
- GI50 [33]: > 100 µM (inactive)
- GI50 [34]: > 100 µM (inactive)
- GI50 [35]: > 100 µM (inactive)
- GI50 [56]: > 100 µM (inactive)
- GI50 [36]: 33.5 µM (inactive)
- GI50 [37]: 56.5 µM (inactive)
- GI50 [38]: > 100 µM (inactive)
- GI50 [39]: 63.7 µM (inactive)
- GI50 [40]: > 100 µM (inactive)
- GI50 [41]: > 100 µM (inactive)
- GI50 [42]: 18.5 µM (inactive)
- GI50 [43]: 24.2 µM (inactive)
- GI50 [44]: > 100 µM (inactive)
- GI50 [45]: > 100 µM (inactive)
- GI50 [46]: > 100 µM (inactive)
- GI50 [47]: > 100 µM (inactive)
- GI50 [48]: 32 µM (inactive)
- GI50 [57]: > 100 µM (inactive)
- GI50 [49]: > 100 µM (inactive)
- GI50 [50]: 26.6 µM (inactive)
